Test results: patent US20050234015A1, “Low molecular weight heparin salt with triethanolamine useful as therapeutic-antitrombotic agent of local delivery, procedures for preparing them, process for elimination of hygroscopicity of heparin salt, pharmaceutical compositions for local use in antithrombotic therapy and uses therein” (priority 2004, published 2005)
Where two headings read alike, the source gives them in different places.

What was measured:
[1] = anticoagulant strength of injectable heparin according to European Pharmacopoeia 2002 (EP strength); assay type: biochemical
Protocol: (§1) 7) Analytical Techniques Used • The anticoagulant strength of injectable heparin was determined according to European Pharmacopoeia 2002 (EP strength) and to USP 26 (USP strength) • Anti Xa and anti ha strengths were determined according to the literature of low molecular weight heparins (European Pharmacopoeia 2002) • Distribution of molecular weights and mean ponderal molecular weight were determined according to the literature of low molecular weight heparins (European Pharmacopoeia 2002), therefore, in the run buffer, TEA is replaced by Na^+ and the data obtained then pertain to polysaccharide sodium salt and not to TEA salt. • Triethanolamine is dosed by potentiometric titration.

IIa [2] = biological target: T1, IIa (Homo sapiens, UniProt P00734); assay: anti IIa strength, European Pharmacopoeia 2002 Low Molecular Mass Heparin; assay type: biochemical
Protocol: (§2) The anti Xa and anti IIa biological strengths were measured according to the European Pharmacopoeia EP2002; “Low Molecular Mass Heparin”, as well as the mean molecular weights (weighed average Mw) and the molecular weight distribution. Moreover, the standards and gages are those strictly cited in the mentioned literature. It is noted that in the run buffer for the chromatographic test by HPLC (Na2SO4, 0.2M pH 5.0) the TEA is replaced by N^a+ whereby the declared value is that of the sodium polysaccharide fraction and not the one of the LMWH-TEA salt.
as §1

Xa [3] = assay: anti Xa strength, European Pharmacopoeia 2002 Low Molecular Mass Heparin; assay type: biochemical
Protocol: as §2, §1

[4] = system: experimental thrombosis in the tail of the test rat; assay: κ-carrageenan rat tail thrombosis model, local cream treatment; assay type: in vivo, Wister rats (female); details: 1000 u antiXa/gram, compared with local heparin and LMWH sodium salt creams
Description: With such criteria, Wister rats (female) raised in the laboratory and sanitarily controlled were used as test mammal.
Particularly, the thrombosis model developed consists of generating an experimental thrombosis in the tail of the test rat by intravenous injection (right caudal vein) of a thrombogenic substance such as κ-carrageenan. Without treatment, the tail of the animal totally forms thrombus without remission over time and ends up with necrosis after 3-4 days.
Particularly, this test was carried out according to the general outlines in Beckmeier et al, Agents and Actions, 16, 446 (1985), as follows:
a. Animals: female rats of 200-300 grams weight.
b. Thrombosing Solution: κ carrageenan Type II solution (Sigma C 1263) 1 mg/ml in sterile physiologic solution. 1 ml /kg of animal (right caudal vein of the tail) is injected (0.25 ml).
c. Thrombus induction: a tourniquet is placed near the tail base (15 cm from the end thereof) which was previously shaved. After 1 minute a thrombosing solution is injected and the animal tail is immediately immersed for 30 seconds in ice water, water is removed, it is dried and the tourniquet is kept for an additional 30 seconds. Then, the animal is kept for 2 minutes in a chamber at 10° C.
d. […]

[5] = hygroscopicity of the lyophilized product (observation); assay type: physicochemical; details: lyophilized solid
Description: The salt obtained from the reaction of the triethanolamine (TEA) with the low molecular weight heparin (LMWH) is an amber colored substance, with a waxy appearance, extremely difficult to manipulate due to its high hygroscopicity. These characteristics of the LMWH-TEA salt make extremely difficult its precise dosage in the preparation of the pharmaceutical end products (creams, gels, ointments).

IIa [6] = biological target: T1, IIa; details: LMWH sodium salt by radical fragmentation methods, European Pat. 268885, U.S. Pat. No. 4,977,250; cited from earlier work
Xa [7] = details: LMWH sodium salt by radical fragmentation methods, European Pat. 268885, U.S. Pat. No. 4,977,250; cited from earlier work
[8] = Example 3 comparison: LMWH-TEA of Example 2 vs lyophilizate with mannitol (60:40)
[9] = theoretical calculation: 100 g LMWH-Na = 167 g LMWH-TEA

For heparin [Injectable Heparin], the “EP Strength” value ([1]; starting injectable heparin of Example 1) was 182 iu/mg and the “EP Strength” value ([1]; starting injectable heparin of Example 2) was 180 iu/mg.
For “low molecular weight heparin salt with triethanolamine [LMWH-TEA]”, the “anti IIa Strength” value (IIa [2]; [8]) was 24 iu/mg, the “anti IIa Strength” value (IIa [2]; product of Example 1) was 24 iu/mg and the “anti IIa Strength” value (IIa [2]; product of Example 2) was 24 iu/mg. The “anti IIa, Experimental” value (IIa [2]; summary of experimental data) was 24 iu/mg, the “anti IIa, Theoretical” value (IIa [2]; [9]) was 24 iu/mg and the “anti Xa Strength” value (Xa [3]; [8]) was 50 iu/mg. For the same substance, the “anti Xa Strength” value (Xa [3]; product of Example 1 (HClO depolymerization, diafiltration with TEA)) was 51 iu/mg, the “anti Xa Strength” value (Xa [3]; product of Example 2 (H2O2/FeSO4 depolymerization, ion exchange resin, TEA)) was 50 iu/mg and the “anti Xa, Experimental” value (Xa [3]; summary of experimental data) was 50-51 iu/mg. The “anti Xa, Theoretical” value (Xa [3]; [9]) was 54 iu/mg, the “efficacy against thrombosis, in words” value [4] was “highly significant restitutive activity” and the hygroscopicity [5] was “highly hygroscopic”.
In the case of “low molecular weight heparin sodium salt [LMWH Na]”, the “anti IIa Strength” value (IIa [6]) is listed as about 40 iu/mg and the “anti Xa Strength” value (Xa [7]) is listed as about 90 iu/mg.
